Laboratory results reported in patent US7361633B2, “Screening method and anti-tumor drug candidate obtained therefrom” (Ardana Bioscience Limited, priority 2002, dated 2008).
“Also recorded” adds a separate entry of the source.

How the values were obtained:
Type II GnRHR = biological target: T1, Type II GnRHR (Callithrix jacchus, UniProt Q95MG6); assay: Binding affinity for Type II GnRHR (data not shown)
T1 sequence (Q95MG6 1-380): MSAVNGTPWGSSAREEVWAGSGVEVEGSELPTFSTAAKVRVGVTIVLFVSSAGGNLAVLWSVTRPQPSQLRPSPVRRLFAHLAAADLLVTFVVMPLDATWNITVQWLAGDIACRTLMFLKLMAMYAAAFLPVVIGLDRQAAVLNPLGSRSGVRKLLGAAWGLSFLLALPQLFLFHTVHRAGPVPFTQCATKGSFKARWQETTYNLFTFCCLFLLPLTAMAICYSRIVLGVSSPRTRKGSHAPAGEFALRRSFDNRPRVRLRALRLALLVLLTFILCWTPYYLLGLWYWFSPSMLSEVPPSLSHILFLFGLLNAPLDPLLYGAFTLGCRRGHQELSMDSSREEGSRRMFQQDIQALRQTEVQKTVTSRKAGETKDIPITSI

[1] = biological target: T2, marmoset Type II GnRH receptor (Callithrix jacchus, UniProt Q95MG6); assay: Inositol phosphate accumulation in αT4-II cells; format: cell-based; details: GnRH II 10 nM
T2 construct: expressed in transfected cells
T2 sequence (Q95MG6 1-380): T1 sequence (Q95MG6 1-380)
Procedure: The histograms in panels a and b represent inositol phosphate accumulation data from HEK293 cells stably expressing the Type I GnRH receptor only (SCL60). […] In panels c and d, the liberated inositol phosphates generated were measured in the proto-gonadotrope cells (αT4) stably expressing the marmoset Type II GnRH receptor (designated αT4-II).
The ability of the four major agents under study at activating ectopically expressed Type I or Type II GnRHR were tested (FIG. 12). The classical signal transduction cascade activated by GnRHR stimulation is the Gαq-PLC-β cascade. Both Type I and II receptor can stimulate the Gαq-PLC type-G-protein and activate PLC-β which cleaves phosphatidylinositol bisphosphate (PIP2) into inositol trisphosphate (IP3), other lower inositol phosphates (IPn) and diacylglycerol (DAG). The major function of IP3 is to elevate intracellular Ca^2+ while DAG causes the activation of specific PKC (protein kinase C) isoforms.
Panels a and b of FIG. 12 depict the generation of free cytoplasmic ^3H-myo-inositols on the plasma membranes of HEK293 cells expressing the Type I GnRHR and of αT4 gonadotropes expressing the marmoset Type II GnRHR. Prior to agonist stimulation the respective cells were incubated in inositol-free growth media supplemented with 1 μCi/ml ^3H-myoinositol for 48 h. G protein coupled receptor (GPCR)-induced activation of PLC-β results in the cleavage of PIP2 (incorporating tritium ^3H) into free lower inositol phosphates (IPns).

Type I GnRHR = assay: Binding affinity for Type I GnRHR (data not shown)
[2] = tested on: Type II GnRHRs cloned from several species; details: Ott et al (2002); cited from earlier work
[3] = tested on: caspase 3 and procaspase 3; assay: Caspase 3 / procaspase 3 immunoblot of BPH-1 whole cell lysates; format: cell-based, human; details: BPH-1 cells, continuous stimulation, time course
Procedure: (§1) All twelve panels depict either phase contrast (1, 4, 7, 10), confocal laser microscope (2, 5, 8, 11) or phase contrast/confocal merged images (3, 6, 9, 12). Panels 1 to 3 depict untreated control JEG-3 cells for cells in panels 4 to 6 which have been treated with GnRH I (100 nM) for 24 h. All cells have been exposed while live to an annexin V recombinant protein conjugated to the FITC fluorophore. The annexin V will bind specifically only to phosphatidlyserine (PS) lipids usually only expressed on the intracellular side of the plasma membrane lipid bilayer. An early sign of apoptosis is the translocation of these PS lipids from the intracellular side of the membrane to the outer aspect of the bilayer. […] The cellular levels of caspase 3 and procaspase 3 were assessed by specific immunoblotting of JEG-3 or BPH-1 whole cell (w-c) lysates from cells stimulated continuously with GnRH I for the times depicted.
(§2) Thus we have shown that upon continuous GnRH ligand stimulation of either JEG-3 or BPH-1 there is a retardation of cell growth, however we were interested as to whether there was any genuine induction of cellular apoptosis recently reported to occur in several tumour cell lines (Soon et al (2002) J. Clin. Endocrinol. Metab. 87, 4580-4586). […] Initially we measured the effects of GnRH stimulation upon the ultrastructural integrity of the cells plasma membrane. […]

[4] = tested on: caspase 3 and procaspase 3; assay: Caspase 3 / procaspase 3 immunoblot of JEG-3 whole cell lysates; format: cell-based, human; details: JEG-3 cells, 100 nM continuously, time course
Procedure: as §1, §2

In the case of “Ac-D-Nal(2)-D-4-ClPhe-D-Pal-Ser-1-MePal-D-IsopropylLys-Leu-IsopropylLys-Pro-D-AlaNH2 [Ant 135-25]”, the “binding affinity for Type II GnRHR” value (Type II GnRHR) is reported as “high binding affinity”, the “agonistic activity: liberated inositol phosphates at marmoset Type II GnRH receptor” value [1] is reported as “do not cause any liberation of free inositol phosphates” and the “agonistic activity: liberated inositol phosphates at marmoset Type II GnRH receptor” value ([1]; listed as 135-25) is reported as “no IPn-generating capacity”. The “agonistic activity: liberated inositol phosphates at marmoset Type II GnRH receptor” value ([1]; listed as Ant135-25) was “no partial activity at all; also recorded: fails to show any agonistic activity at the Type II marmoset GnRHR”, the “agonistic activity: liberated inositol phosphates at marmoset Type II GnRH receptor” value ([1]; listed as antagonist 135-25) was “failed to generate significant free inositol phosphate” and the “binding affinity for Type I GnRHR” value (Type I GnRHR) was “high binding affinity”.

For “Ac-D-Nal(2)-D-4-ClPhe-D-Pal-Ser-Ile-D-IsopropylLys-Leu-IsopropylLys-Pro-D -AlaNH2 [Ant 135-18]”, the “partial agonistic activity upon Type II GnRHRs cloned from several species” value [2] is listed as “high degree of partial agonistic activity”, the “agonistic activity: liberated inositol phosphates at marmoset Type II GnRH receptor” value [1] is listed as “considerable partial agonistic activity; also recorded: dose-dependent agonistic activity” and the “agonistic activity: liberated inositol phosphates at marmoset Type II GnRH receptor” value ([1]; listed as 135-18) is listed as “only the Type II receptor was activated by 135-18”.

For “GnRH I: Gonadotropin-Releasing Hormone, a decapeptide; the original form of GnRH, re-named GnRH I”, the “cellular levels of pro-caspase 3 and cleaved caspase-3” value [3] was “enhanced expression of the pro-apoptotic proteases cleaved-caspase 3 and procaspase 3; also recorded: more rapid onset on the generation of cleaved caspase-3”, the “cellular level of cleaved (active) caspase-3” value [4] was “enhanced expression of the pro-apoptotic proteases cleaved-caspase 3 and procaspase 3; also recorded: only significantly evident between 48-72 h” and the “cellular level of pro-caspase 3” value [4] was “enhanced expression of the pro-apoptotic proteases cleaved-caspase 3 and procaspase 3; also recorded: significant elevation in the cellular levels of pro-caspase 3 evident from 24-48 h”.
